According to paper PMC8776094, “Reactive Oxygen Species Production Is Responsible for Antineoplastic Activity of Osmium, Ruthenium, Iridium and Rhodium Half-Sandwich Type Complexes with Bidentate Glycosyl Heterocyclic Ligands in Various Cancer Cell Models” (International Journal of Molecular Sciences, 2022):

Key:
Assay type in all cases: cell-based
A2780 cells = assay: Annexin V-propidium iodide double staining, cell death, flow cytometry; settings: 2 h treatment; Os-3 2.68 µM, Os-4 3.25 µM, Os-5 2.84 µM, Os-6 0.70 µM, Ir-6 1.63 µM
Method: We selected the Os-3, Os-4, Os-5, Os-6 and Ir-6 complexes for further study, based on their strong cytostatic activity on the ovarian cancer cell lines, but there was a lack of activity on primary fibroblasts. […] Similar to previous approaches, as propidium iodide or Annexin V positivity is an early feature of cell death, we treated cells for 2 h and then performed double-staining with Annexin V—propidium iodide.
The proportion of dead cells was assessed using the Annexin V–propidium iodide assay and was measured using flow cytometry with a BD FacsCalibur (BD Biosciences, Franklin Lakes, NJ, USA) instrument and the FITC Annexin V/Dead Cell Apoptosis kit (Life Technologies, Eugene, OR, USA), according to the manufacturer’s instructions, in a process similar to that in [43]. Quadrants were set, based on the FITC and PI values observed for the vehicle-treated cells.
Here, 1 × 10^6 A2780 cells were plated in 6-well plates and were treated with the corresponding complexes (Os-3 at 2.68 µM, Os-4 at 3.25 µM, Os-5 at 2.84 µM, Os-6 at 0.70 µM, Ir-6 at 1.63 µM,) and 300 µM hydrogen peroxide for 2 h. Cells were then stained with Annexin V and propidium iodide (PI), then, cells were subjected to flow cytometry as described in the Materials and Methods section. The percentage of cells in the quadrants was plotted. Data are represented as average ± SD, from three biological replicates; individual assays were performed in duplicate. Normality was tested, on all datasets. A two-step transformation was used to achieve normal distribution. Statistical significance was determined using a two-way ANOVA test; all measurement points were compared with each other. ** and *** indicate statistically significant differences between vehicle-treated (control) and treated cells ([…] or 300 µM H2O2) corresponding to the same quadrant (e.g., vehicle-treated double-negative cells vs. Os-3-treated double-negative cells) at p < 0.01 and p < 0.001, respectively.

[1] = tested on: ID8 ovarian cancer cell line; assay: MTT reduction assay, 4 h, rapid toxicity, ID8; settings: 4 h treatment; for Maximum Inhibition (%) ID8: MTT assay, ND = not detected or cannot be calculated
Method: (§1) The compounds were tested between 0.001694 and 33.3333 µM, using a 4-hour-long MTT test to assess rapid toxicity and a 48-hour-long SRB assay to assess the long-term effects of the inhibition of proliferation (cytostasis). The MTT assay assesses the activity of mitochondrial complex I and detects rapid, direct toxicity, as well as indicating apoptosis and necrosis. The SRB assay measures the total protein content that is proportional to cell numbers; therefore, the assay can detect changes in cell numbers and can thus be used as a readout for cell proliferation. The SRB assay was performed after 48 h of treatment (with the exception of L428 cells, which were tested for 96 h due to their slower proliferation rate). In this setting, the SRB assay informs us of long-term changes to cell proliferation. We assessed the maximal inhibition within that concentration range, and descriptive statistics were performed. We performed a one-way ANOVA, followed by the Kruskal–Wallis test, regardless of the normal or non-normal distribution of the data. Due to the large number of significance values, the results of the significance calculations are provided in an Excel spreadsheet at https://figshare.com/s/28d14597d5041f08eb08 (accessed on 6 January 2022), among other primary data of the study. Where possible, nonlinear regression was performed on the curves to determine the IC50 values ((inhibitor) vs. response—variable slope (four parameters) method with Graphpad v8.0.1). […] In Table 5, we added the IC50 values that we determined for a set of 4 active ruthenium half-sandwich complexes we identified previously, to be used in subsequent structure-activity relationship (SAR) analyses.
ID8 cells were cultured in a high-glucose DMEM (4.5 g/L glucose) medium, supplemented with 4% fetal calf serum, 2 mM glutamine, 1% penicillin-streptomycin, and 1% ITS supplement (I3146).
The MTT reduction assay measures the activity of mitochondrial complex I and can be used to detect apoptosis and necrosis. The assay was performed similarly to the method used in [72]. Briefly, cells were plated in 96-well plates the day before the assay. Cells were treated with the compounds for 4 h, then MTT was added at 0.5 mg/mL final concentration and the cells were incubated at 37 °C in a cell incubator. The culture media were removed and the reduced MTT dye was dissolved in dimethyl-sulfoxide (DMSO) and plates were measured in a plate photometer (Thermo Scientific Multiscan GO spectrophotometer, Waltham, MA, USA) at 540 nm. On each plate, wells were designed to contain untreated/vehicle-treated cells. In the calculations, the readings for these wells were considered as 1 and all readings were expressed relative to these values.

[2] = tested on: L428, a Hodgkin's lymphoma cell line; assay: Cytostasis assay, 96 h, L428; settings: for cytostatic activity on L428 cells (in words): 96 h; for L428 Max. Inh. (%): 96 h treatment, ND = not detected
Method: as §1
We turned next to assessing whether the cytostatic activity of Os-3, Os-4, Os-5, Os-6 and Ir-6 complexes is specific for ovarian cancer cell lines or if they may be active on other cell lines. To that end, we tested the complexes on another carcinoma cell line (Capan2, a pancreatic adenocarcinoma cell line), on a sarcoma cell line (Saos, an osteosarcoma cell line) and on a lymphoma cell line (L428, a Hodgkin’s lymphoma cell line).
L428 cells were maintained in RPMI 1640 medium, supplemented with 10% fetal calf serum, 2 mM glutamine, and 1% penicillin-streptomycin.
The assay was performed similarly to the method used in [73]. Cells were seeded in 96-well plates the day before the assay. Cells were treated with the compounds for 48 h, with the exception of L428, where 96 h of treatment was applied. Cells were fixed with 10% trichloroacetic acid (TCA). Fixed cells were washed in distilled water 3 times, followed by staining with SRB (0.4 m/V% dissolved in 1% acetic acid) for 10 min. The stained cells were washed in 1% acetic acid 5 times; the acetic acid was removed, and the cells were left to dry. Protein-bound SRB was released by adding 100 µL 10 mM Tris base. Plates were measured in a plate photometer (Thermo Scientific Multiscan GO spectrophotometer, Waltham, MA, USA) at 540 nm. On each plate, wells were designed to contain untreated cells. In calculations, the readings for these wells were considered as 1 and all readings were expressed relative to these values.
Here, 1.5 × 10^3 Capan2, 3 × 10^3 Saos cells and 10^4 L428 cells were plated onto 96-well plates. Capan2 and Saos cells were treated with the compounds in the concentrations indicated for 48 h for an SRB assay. L428 cells were treated with the compounds in the concentrations indicated for 96 h, then cells were counted using conventional microscopy and a Burker chamber. Data are represented as average ± SD, from three biological replicates; individual assays were performed in duplicate. Values were normalized for vehicle-treated cells; the absorbance for vehicle-treated cells is equal to 1. A one-way ANOVA, followed by a Kruskal–Wallis test, was performed individually for each compound. […]

| Compound | induction of cell death (Annexin V / propidium iodide positivity) (A2780 cells) | cytotoxicity on ID8 cells, MTT assay (in words) [1] | Maximum Inhibition (%) ID8 [1] | cytostatic activity on L428 cells (in words) [2] | L428 Max. Inh. (%) [2] |
| --- | --- | --- | --- | --- | --- |
| Cc1c(C)c(C)[c-](C)c1C.F[P-](F)(F)(F)(F)F.O=C(OCC1OC(n2cc(-c3ccccn3)nn2)C(OC(=O)c2ccccc2)C(OC(=O)c2ccccc2)C1OC(=O)c1ccccc1)c1ccccc1.[Cl][Ir+2] (mixture of isomers) [Ir-6] | None of the complexes induced cell death | mild cytotoxicity | 62.71% | active on all cell lines | 100% |
| Cc1ccc(C(C)C)cc1.F[P-](F)(F)(F)(F)F.O=C(OCC1OC(c2nnc(-c3ccccn3)o2)C(OC(=O)c2ccccc2)C(OC(=O)c2ccccc2)C1OC(=O)c1ccccc1)c1ccccc1.[Cl][Os+] (mixture of isomers) [Os-3] | None of the complexes induced cell death | cytotoxic capacity to a greater extent than on A2780 cells | 35.24% | active on all cell lines | 100% |
| Cc1ccc(C(C)C)cc1.F[P-](F)(F)(F)(F)F.O=C(OCC1OC(c2nnc(-c3ccccn3)o2)C(OC(=O)c2ccccc2)C(OC(=O)c2ccccc2)C1OC(=O)c1ccccc1)c1ccccc1.[Cl][Os+] (mixture of isomers) [Os-4] | None of the complexes induced cell death | – | 22.91% | active on all cell lines | 100% |
| Cc1ccc(C(C)C)cc1.F[P-](F)(F)(F)(F)F.O=C(OC1COC(c2nnc(-c3ccccn3)o2)C(OC(=O)c2ccccc2)C1OC(=O)c1ccccc1)c1ccccc1.[Cl][Os+] (mixture of isomers) [Os-5] | None of the complexes induced cell death | cytotoxic capacity to a greater extent than on A2780 cells | 59.51% | active on all cell lines | 100% |
| Cc1ccc(C(C)C)cc1.F[P-](F)(F)(F)(F)F.O=C(OCC1OC(n2cc(-c3ccccn3)nn2)C(OC(=O)c2ccccc2)C(OC(=O)c2ccccc2)C1OC(=O)c1ccccc1)c1ccccc1.[Cl][Os+] (mixture of isomers) [Os-6] | None of the complexes induced cell death | cytotoxic capacity to a greater extent than on A2780 cells | 64.44% | active on all cell lines | 100% |
